The text below walks through data of US20100310450A1, “METHOD OF DIAGNOSIS AND AGENTS USEFUL FOR SAME” (MEDVET SCIENCE PTY. LTD., priority 2006, published 2010).

The structures appear in SMILES notation.

The test system of one test is apoptotic Jurkat cells. As to the kind of experiment: Inhibition by the TG2 inhibitor MDC of protein crosslinking and 3B9 binding in cisplatin-treated Jurkat cells. To be noted: 20 μg/mL cisplatin. The class given is cell-based, human. The method, then: FIG. 18 depicts that La antigen is crosslinked during apoptosis. (A) Jurkat cells incubated in 20 μg/mL cisplatin were removed at specified time points and incubated for 10 min. in 1% Triton X-100 solution before 3B9 binding analysis. Data are presented as density plots of staining with 3B9 vs. 7-AAD. (B) Immunoblots of cell lysates of control and cisplatin-treated Jurkat cells were probed with 3B9 for expression of La (top panels) or actin as a loading control (bottom panels) at specified times. (C) Jurkat cells incubated in the absence or presence of increasing concentrations of cisplatin were labeled with cadaverine-biotin added at 100 μM for 48 h. Cells were stained with strepatavidin-Alexa488 and analyzed by flow cytometry. Data shown are MFI±SEM (n=3). […] Cells were analyzed at specified times (24 □, 48 ? and 72 h ▪) for sulforhodamine 101 staining. […]
Transglutaminase 2 (TG2)-mediated protein-protein crosslinking in apoptotic cells was investigated using a modification of a previously described method. […] Samples were vortexed and incubated for 5 min. before analysis by flow cytometry where fluorescence from Sytox Green and sulforhodamine were detected using FL-1 and FL-3, respectively. The degree of crosslinking in apoptotic cells was calculated as the ratio of the MFI of sulforhodamine staining in apoptotic cells to the MFI in control cells (protein crosslinking ratio). […]

The subject of test [1] is PANC-1 cells. As to the kind of experiment: Cell death (7-AAD) and 3B9-specific binding after gemcitabine and TSA. Format: cell-based, human. The note with it: TSA alone; data not shown. The method, then: FIG. 15 depicts that 3B9 binding to dead PANC-1 cells is augmented after combination treatment with gemcitabine and TSA produced additive cytotoxicity and DNA-damaging effects. PANC-1 cells were incubated with increasing concentrations of gemcitabine in the absence (clear columns) or presence of 100 ng/mL (hatched columns) or 200 ng/mL (filled columns) of TSA. Analysis was done for viability using 7-AAD (A), 3B9-specific binding (B) and DNA damage using γH2AX staining (C). Data are presented as mean±SEM from three independent experiments. Photomicrographs show PANC-1 cells treated with gemcitabine and TSA (+) or not (−), which were stained with γH2AX-specific mAb and 7-AAD (D).
PANC-1 cells (2×10^4 cells) were seeded in flat bottom 96-well plates overnight using phenol-free RPMI-1640 medium containing 10% FCS (medium). Cells were incubated with the specified concentrations of gemcitabine or TSA singly or in combination. Cells were collected (from media and EDTA detached adherent cells) and subjected to indirect immunofluorescence staining with Apomab or its Sal5 isotype control mAb and assessed for viability with 7-AAD staining. […]
(§1) Apoptosis or cell death was induced by adding cytotoxic drugs to culture media at the specified concentrations. […] Control (untreated) cells had ≧90% viability determined by PI or trypan blue staining (data not shown). […]

The subject of test [2] is PANC-1 cells. Briefly: MTS proliferation assay with TSA and gemcitabine. Format: cell-based, human. The note with it: TSA alone. Here is the method: FIG. 40 depicts that gemcitabine and TSA synergise to reduce proliferation rates among PANC-1 cells in vitro. PANC-1 cells (2×10^4 cells) were seeded in flat bottom 96-well plates overnight using phenol-free RPMI-1640 medium containing 10% FCS (medium). A serial dilution of 2×10^4 cells was used to construct a standard curve for the MTS assay. Triplicate wells were incubated with increasing concentrations of TSA (nM) with or without the addition of increasing concentrations of gemcitabine. Three identical plates were incubated for 24, 48 or 72 h then medium was decanted and fresh medium (100 μL) containing 20 μL MTS/PMS substrate was added to all wells. Assays were performed according to the manufacturer's instructions. The change in the absorbance reading over time was calculated for each condition in units of change per 12 h (upper panel), which was converted to units of cell number change per 12 h (lower panel) using a standard curve of the absorbance reading as a function of […] (r^2=0.99).

A further test deals with Jurkat cells. Briefly: Apomab-specific binding to cisplatin-treated Jurkat cells with TSA. The class given is cell-based, human. To be noted: TSA added to 10 μg/mL cisplatin, 48 h. Here is the method: FIG. 36 depicts that the histone deacetylase inhibitor (HDACi) trichostatin A (TSA) exerts dose-dependent synergy with cisplatin to augment Apomab-specific binding to dead Jurkat cells. Jurkat cells were incubated for 48 h with 10 μg/mL cisplatin together with increasing concentrations of TSA. Cells were subjected to indirect immunofluorescence staining using Apomab or its Sal5 isotype control mAb and viability was assessed using 7-AAD. Apomab-specific binding was calculated as the Net MFI after gating on 7-AAD^+ events. Data are presented as the mean±SEM from two separate experiments. (A) Apomab-specific binding to cisplatin-treated Jurkat cells is plotted as a function of TSA concentration. […]
as §1
Indirect immunofluorescence staining was performed using purified mouse antibodies at 5 μg/mL for 30 min. at room temperature (RT) in PBS followed by Alexa488-conjugated anti-mouse IgG at 2 μg/mL for 30 min. at RT in PBS. […] Cell viability was assessed by the exclusion of PI (0.5 μg/mL) and detected using the FL-2 channel (585 nm filter) or by the exclusion of 7-AAD (2 μg/mL for 15 min. at RT) and detected using the FL-3 channel (>650 nm filter). […]

For another test, the system named is Raji. As to the kind of experiment: Binding of La-specific mAb (3B9-FITC) to apoptotic human cancer cell lines, dual-colour flow cytometry. To be noted: 2 μM staurosporine, 20 μg/mL etoposide or 0.1 μg/mL vincristine, 3B9-FITC and PI. In general terms: In flow cytometry, cells or beads pass a laser one at a time.

For `CN(C)c1cccc2c(S(=O)(=O)NCCCCCN)cccc12` [MDC, monodansylcadaverine], the “effect on protein crosslinking (sulforhodamine crosslinking ratio)” value in the test on apoptotic Jurkat cells is reported as “dose-dependent inhibitory effect”.

As for `CC(/C=C/C(=O)NO)=C\[C@@H](C)C(=O)c1ccc(N(C)C)cc1` [TSA, trichostatin A], the “3B9 binding in comparison with control PANC-1 cells” value with PANC-1 cells [1] is “did not alter 3B9 binding”. In addition, in the test with PANC-1 cells [2], the “effect on proliferation of PANC-1 cells” value is reported as “inhibited proliferation”. In the test on Jurkat cells, the “Apomab-specific binding to dead Jurkat cells” value is on record as “dose-dependent increase”.

Regarding `CC[C@]1(O)C[C@H]2CN(CCc3c([nH]c4ccccc34)[C@@](C(=O)OC)(c3cc4c(cc3OC)N(C=O)[C@H]3[C@@](O)(C(=O)OC)[C@H](OC(C)=O)[C@]5(CC)C=CCN6CC[C@]43[C@@H]65)C2)C1` [Vincristine, vincristine], in the test on Raji, the “percentages of PI+ and 3B9+ events after subtraction of control (PI+ and Sal5+) events” value came to 9.8%.
